The species named for assay [1] is Homo sapiens. Nature of the assay: Selectivity index, ratio of IC50 for inhibition of Grap94 (unkown origin) to IC50 for inhibition of TRAP1 (unknown origin).
The target of assay [2] is Heat shock protein HSP 90-alpha (Homo sapiens, UniProt P07900). In words: Inhibition of PU-H71-FITC3 binding to recombinant N-terminal HSP90alpha (unknown origin) incubated for 2 hrs by fluorescence polarization assay. On the technique in general: Fluorescence polarisation rises when a labelled molecule tumbles more slowly, as on binding a larger partner.
Assay [3] concerns the target T1, Heat shock protein 75 kDa, mitochondrial (Homo sapiens) (UniProt Q12931).
T1 sequence (whole entry): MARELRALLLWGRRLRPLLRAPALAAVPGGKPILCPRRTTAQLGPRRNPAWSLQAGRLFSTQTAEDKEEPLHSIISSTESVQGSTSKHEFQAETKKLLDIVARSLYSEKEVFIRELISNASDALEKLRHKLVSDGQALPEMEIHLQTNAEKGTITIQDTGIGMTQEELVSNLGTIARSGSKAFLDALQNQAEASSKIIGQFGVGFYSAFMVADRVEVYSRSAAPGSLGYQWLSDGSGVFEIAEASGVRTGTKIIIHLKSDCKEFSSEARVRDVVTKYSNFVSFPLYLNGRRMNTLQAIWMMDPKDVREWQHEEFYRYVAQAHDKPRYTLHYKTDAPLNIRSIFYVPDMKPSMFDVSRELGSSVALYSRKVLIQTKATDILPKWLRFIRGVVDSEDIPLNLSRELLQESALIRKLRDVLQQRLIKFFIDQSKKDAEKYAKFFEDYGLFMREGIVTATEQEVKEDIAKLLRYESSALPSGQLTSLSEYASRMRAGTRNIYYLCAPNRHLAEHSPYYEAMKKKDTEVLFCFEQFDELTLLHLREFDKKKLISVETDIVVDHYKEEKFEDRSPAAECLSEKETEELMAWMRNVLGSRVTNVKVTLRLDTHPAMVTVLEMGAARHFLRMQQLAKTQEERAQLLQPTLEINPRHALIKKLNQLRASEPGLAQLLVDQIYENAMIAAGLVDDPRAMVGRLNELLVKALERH
In words: Inhibition of TRAP1 in human HeLa cells assessed as reduction in SDHB protein expression at 25 uM after 12 hrs by Western blotting analysis. Format: cell-based. Background: In western blotting, separated proteins are transferred to a membrane and probed.

Assay [4] addresses T2, Endoplasmin (Homo sapiens, UniProt P14625). In words: Inhibition of PU-H71-FITC3 binding to recombinant N-terminal Grp94 (unknown origin) incubated for 2 hrs by fluorescence polarization assay.
For assay [5], the species on record is Homo sapiens. Nature of the assay: Selectivity index, ratio of IC50 for inhibition of HSP90alpha (unkown origin) to IC50 for inhibition of TRAP1 (unknown origin).
Assay [6] has as its target T2, Endoplasmin. In words: Inhibition of Grp94 in human HeLa cells assessed as reduction in HER2 protein expression at 25 uM after 12 hrs by Western blotting analysis. The class given is cell-based.
In assay [7] the target is T3, Heat shock protein 75 kDa, mitochondrial (Homo sapiens, UniProt Q12931).
T3 sequence (Q12931 whole entry): T1 sequence (whole entry)
Nature of the assay: Inhibition of PU-H71-FITC3 binding to recombinant full length TRAP1 (unknown origin) incubated for 2 hrs by fluorescence polarization assay.

The target of assay [8] is T2, Endoplasmin. In words: Inhibition of Grp94 in human HeLa cells assessed as reduction in cdk4 protein expression at 25 uM after 12 hrs by Western blotting analysis. The class given is cell-based.
The next assay relates to HeLa. In words: Induction of apoptosis in human HeLa cells assessed as increase in cleaved caspase 3 protein expression at 25 uM after 12 hrs by Western blot analysis. The class given is functional, cell-based.

Usually IC50 stands for the concentration that inhibits the measured activity by half.

Calls of active or inactive are those of the source. No cut-off for these calls is given here.

T2 sequence (P14625 whole entry): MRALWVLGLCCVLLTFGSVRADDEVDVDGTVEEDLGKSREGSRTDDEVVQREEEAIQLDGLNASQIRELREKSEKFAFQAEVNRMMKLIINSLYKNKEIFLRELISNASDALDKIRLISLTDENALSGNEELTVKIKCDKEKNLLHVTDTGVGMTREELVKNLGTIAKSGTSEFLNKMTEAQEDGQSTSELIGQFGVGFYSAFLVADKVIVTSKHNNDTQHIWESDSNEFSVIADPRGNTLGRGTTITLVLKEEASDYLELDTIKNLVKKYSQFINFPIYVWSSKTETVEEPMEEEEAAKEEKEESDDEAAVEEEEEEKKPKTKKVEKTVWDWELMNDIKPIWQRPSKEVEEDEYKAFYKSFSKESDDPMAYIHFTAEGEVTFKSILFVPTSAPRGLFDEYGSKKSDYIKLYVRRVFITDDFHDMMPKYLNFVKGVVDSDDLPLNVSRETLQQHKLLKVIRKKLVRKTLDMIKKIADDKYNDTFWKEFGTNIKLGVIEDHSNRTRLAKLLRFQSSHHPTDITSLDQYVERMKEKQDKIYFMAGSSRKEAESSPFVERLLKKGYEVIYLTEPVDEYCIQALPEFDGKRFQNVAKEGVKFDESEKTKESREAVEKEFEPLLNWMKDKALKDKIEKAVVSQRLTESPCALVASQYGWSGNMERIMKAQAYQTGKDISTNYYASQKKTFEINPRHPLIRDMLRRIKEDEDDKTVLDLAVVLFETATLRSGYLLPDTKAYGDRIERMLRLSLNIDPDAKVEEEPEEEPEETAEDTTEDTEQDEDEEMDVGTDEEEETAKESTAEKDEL

For the compound `Nc1nc(Cl)c2nc(O)n(Cc3ccc(Cl)c(Cl)c3)c2n1`, the Ratio IC50 is 12.9 in the assay filed under Homo sapiens [1] and greater than 65.3 in the assay filed under Homo sapiens [5]. Further, the IC50 in assay [2] is greater than 5000 nM; at Endoplasmin [4], 986 nM; in assay [7], 76.6 nM. The inhibition entry in assay [3] was “Active”. Besides, the inhibition entry on Endoplasmin [6] and at Endoplasmin [8] was “inactive” throughout. Besides, the result in the assay with HeLa was Active.
On to `Cc1ccc(Cn2c(S)nc3c(Cl)nc(N)nc32)c(F)c1`, for which the Ratio IC50 in the assay filed under Homo sapiens [1] was 12.3; in the assay listed under Homo sapiens [5] it was greater than 60.5. The IC50 in [2] is greater than 5000 nM; on Endoplasmin [4], 1020 nM; in assay [7], 82.7 nM. Also, in assay [3], the inhibition entry is “Active”. The inhibition result at Endoplasmin [6] and on Endoplasmin [8] was “inactive” in each case. Besides, in the assay with HeLa, the outcome was Active.
Regarding `Nc1nc(Cl)c2c(n1)N(Cc1ccc(Cl)c(Cl)c1)C(=O)C2`, the Ratio IC50 is 21.2 in the assay filed under Homo sapiens [1] and greater than 61.3 in the assay filed under Homo sapiens [5]. Also, the IC50 in assay [2] is greater than 5000 nM; at Endoplasmin [4] it was 1730 nM; in assay [7], 81.5 nM. The inhibition entry in [3] is “Active”. Moreover, the inhibition result at Endoplasmin [6] and on Endoplasmin [8] was “inactive” in each case. For the same compound, in the assay with HeLa, the outcome was Active.
